The values below come from US5696112A, “Fused heterocyclic azepines as vasopressin antagonists” (American Cyanamid Company, priority 1995, dated 1997).

For test [1], the target named is T1, Rat Kidney Medullary V2 Receptors (vasopressin V2) (Rattus norvegicus, UniProt Q00788).
T1 construct: Medullary tissues from rat kidneys are dissected out; from tissue; host or cells: rat kidney medulla membranes
The test is described as follows: Binding Assay to Rat Kidney Medullary V2 Receptors. Conditions: rat kidney medullary V2, [3H]Arg8-vasopressin. A digest of the protocol:
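Membranes from rat kidney medulla (200 μg protein) were equilibrated for 120 min on the bench with [3H]arginine8-vasopressin, added as a 0.8 nM solution, in Tris-HCl containing MgCl2, heat-inactivated BSA and protease inhibitors. Compounds were dissolved in 50% DMSO, and 1.0 μM unlabeled ligand gave nonspecific binding. Filtration, scintillation counting and competition analysis gave IC50.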

Test [2] addresses T2, Rat Hepatic V1 Receptors (vasopressin V1) (Rattus norvegicus, UniProt P30560).
T2 construct: Rat liver plasma membranes expressing the vasopressin V1 receptor subtypes are isolated by sucrose density gradient; from tissue; host or cells: rat liver plasma membranes
As to the kind of experiment: Binding Assay to Rat Hepatic V1 Receptors. Particulars: rat hepatic V1, [3H]vasopressin. The procedure:
Binding Assay to Rat Hepatic V1 Receptors
Rat liver plasma membranes expressing the vasopressin V1 receptor subtypes are isolated by sucrose density gradient according to the method described by Lesko et al., (1973). These membranes are quickly suspended in 50.0 mMTris.HCl buffer, pH 7.4, containing 0.2% bovine serum albumin (BSA) and 0.1 mM phenylmethylsulfonylfluoride (PMSF) and kept frozen at -70° C. until used in subsequent binding experiments. For binding experiments, the following is added to the wells of a ninety-six well format microtiter plate: 100 μl of 100.0 mM Tris.HCl buffer containing 10.0 mM MgCl2, 0.2% heat inactivated BSA and a mixture of protease inhibitors: leupeptin, 1.0 mg %; aprotinin, 1.0 mg %, 1,10-phenanthroline,2.0 mg %; trypsin inhibitor, 10.0 mg % and 0.1 mM PMSF, 20.0 μl of [phenylalanyl-3,4,5-^3 H]vasopressin (S.A. 45.1 Ci/mmole) at 0.8 nM, and the reaction initiated by the addition of 80 μl of tissue membranes containing 20 μg of tissue protein. The plates are kept undisturbed on the bench top at room temperature for 120 min. to reach equilibrium. Nonspecific samples are assayed in the presence of 0.1 μM of the unlabeled antagonist phenylalanylvasopressin, added in 20.0 μl volume to a final incubation volume of 200 μl. Upon completion of binding, the content of each well is filtered off, using a Brandel® cell Harvester (Gaithersburg, Md.). The radioactivity trapped on the filter disk by the ligand-receptor complex is assessed by liquid scintillation counting in a Packard LS Counter, with an efficiency of 65% for tritium. The data are analyzed for IC50 values by the LUNDON-2 program for competition (LUNDON SOFTWARE, OH).

Test [3] concerns Vasopressin V2. As to the kind of experiment: Vasopressin V2 Antagonist Activity in Conscious Hydrated Rats. The test is classed as in vivo, rat. Particulars: AVP 0.4 μg/kg i.p. How it is done:
Vasopressin V2 Antagonist Activity in conscious Hydrated Rats Conscious hydrated rats are treated with compounds under study from 0.1 to 100 mg/kg orally or vehicle. Two to four rats are used for each compound. One hour later, arginine vasopressin (AVP, antidiuretic hormone, ADH) dissolved in peanut oil is administered at 0.4 μg/kg intraperitoneally. Two rats in each test would not receive arginine vasopressin but only the vehicle (peanut oil) to serve as water-loading control. Twenty minutes later each rat is given 30 mL/kg of deionized water orally by gavage and is placed individually in a metabolic cage equipped with a funnel and a graduated glass cylinder to collect urine for four hours. Urine volume is measured and osmolality analyzed by use of a Fiske One-Ten osmometer (Fiske Assoc., Norwood, Mass. USA). Urinary sodium, potassium, and chloride are analyzed by use of ion-specific electrodes in a Beckman E3 (Electrolyte 3) Analyzer. In the following results, […] and […] osmolality relative to AVP-control indicates activity.

T1 sequence (Q00788 whole entry): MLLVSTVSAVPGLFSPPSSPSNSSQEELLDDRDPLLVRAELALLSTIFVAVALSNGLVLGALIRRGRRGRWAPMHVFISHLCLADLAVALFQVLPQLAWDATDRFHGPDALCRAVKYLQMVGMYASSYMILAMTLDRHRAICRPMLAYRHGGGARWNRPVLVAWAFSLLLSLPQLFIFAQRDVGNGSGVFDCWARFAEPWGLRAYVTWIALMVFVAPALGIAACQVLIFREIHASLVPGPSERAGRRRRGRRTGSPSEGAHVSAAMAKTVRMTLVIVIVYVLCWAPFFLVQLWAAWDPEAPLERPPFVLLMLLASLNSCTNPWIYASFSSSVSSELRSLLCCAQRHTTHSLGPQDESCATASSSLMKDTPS
T2 sequence (P30560 whole entry): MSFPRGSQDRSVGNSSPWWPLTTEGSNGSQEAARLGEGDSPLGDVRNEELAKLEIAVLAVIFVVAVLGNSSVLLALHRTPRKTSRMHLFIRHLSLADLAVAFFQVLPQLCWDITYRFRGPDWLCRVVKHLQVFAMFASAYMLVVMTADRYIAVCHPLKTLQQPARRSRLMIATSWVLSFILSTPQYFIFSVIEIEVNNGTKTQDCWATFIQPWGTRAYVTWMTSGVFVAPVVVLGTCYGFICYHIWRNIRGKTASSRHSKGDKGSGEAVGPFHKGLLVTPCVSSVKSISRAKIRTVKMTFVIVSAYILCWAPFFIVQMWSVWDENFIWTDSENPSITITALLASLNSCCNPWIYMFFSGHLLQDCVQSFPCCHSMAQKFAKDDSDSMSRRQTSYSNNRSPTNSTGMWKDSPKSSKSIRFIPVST

As a reminder, the IC50 is the concentration needed to halve the response being measured. Low values mean greater potency, high ones weaker potency. As for `O=C(Nc1ccc(C(=O)N2CCCCc3sccc32)cc1)c1cc(Cl)ccc1Cl` [Example 9, N-[4-[(5,6,7,8-Tetrahydro-4H-thieno[3,2-b]azepin-4-yl)carbonyl]phenyl]2,5-dichlorobenzamide], the values for the 50% inhibitory concentration (IC50) in test [1] and in test [2] were 0.034 µM and 0.21 µM, respectively.
For the molecule `Cc1ccccc1CC(=O)Nc1ccc(C(=O)N2CCCCc3sccc32)cc1` [Example 13, N-[4-[(5,6,7,8-Tetrahydro-4H-thieno[3,2-b]azepin-4-yl)carbonyl]phenyl]2-methylbenzeneacetamide], the figures for the IC50 in test [1] and in test [2] were 0.01 µM and 0.014 µM, respectively. In addition, the Osmolality in test [3] (30 mg/kg P.O.) amounted to 516 mOsm/kg. In addition, the “Urine Volume” value in test [3] (30 mg/kg P.O.) was 9.5 ml/4 hours.
Consider `O=C(Nc1ccc(C(=O)N2CCCCc3sccc32)c(Cl)c1)c1ccc(Cl)cc1Cl` [Example 68, N-[4-[(5,6,7,8-Tetrahydro-4H-thieno[3,2-b]azepin-4-yl)carbonyl]-3-chlorophenyl]-2,4-dichlorobenzamide], for which, in test [3] (10 mg/kg P.O.), the Osmolality is given as 647 mOsm/kg and the “Urine Volume” value came out at 10.3 ml/4 hours.
In the same order, the values of `Cc1ccc(F)cc1C(=O)Nc1ccc(C(=O)N2CCCCc3sccc32)c(Cl)c1` [Example 70, N-[4-[(5,6,7,8-Tetrahydro-4H-thieno[3,2-b]azepin-4-yl)carbonyl]-3-chlorophenyl]-5-fluoro-2-methylbenzamide] are 1070 mOsm/kg and 4 ml/4 hours.
Consider `O=C(Nc1ccc(C(=O)N2CCCCc3sc(Cl)cc32)cc1)c1ccc(Cl)cc1Cl` [Example 93, 2,4-Dichloro-N-[4-[(2-chloro-5,6,7,8-tetrahydro-4H-thieno[3,2-b]azepin-4-yl)carbonyl]phenyl]benzamide], for which the IC50 in test [1] amounted to 0.019 µM. In addition, the IC50 in test [2] was 0.23 µM. For the same molecule, in test [3] (10 mg/kg P.O.), the Osmolality is recorded as 1056 mOsm/kg and the “Urine Volume” value was 7.6 ml/4 hours.
In the same order, the values of `Cc1c(F)cccc1C(=O)Nc1ccc(C(=O)N2CCCCc3sc(Cl)cc32)cc1` [Example 94, N-[4-[(2-Chloro-5,6,7,8-tetrahydro-4H-thieno[3,2-b]azepin-4-yl)carbonyl]phenyl]-3-fluoro-2-methylbenzamide] are 0.01 µM, 0.16 µM, 910 mOsm/kg and 8.8 ml/4 hours.
`O=C(Nc1ccc(C(=O)N2CCCCc3sc(Cl)cc32)cc1)c1c(Cl)cccc1Cl` [Example 95, N-[4-[(2-Chloro-5,6,7,8-tetrahydro-4H-thieno[3,2-b]azepin-4-yl)carbonyl]phenyl]-2,6-dichlorobenzamide]: in test [3] (10 mg/kg P.O.), the Osmolality is reported as 1122 mOsm/kg and the “Urine Volume” value amounted to 5 ml/4 hours.
In the case of `Cc1ccccc1C(=O)Nc1ccc(C(=O)N2CCCCc3sc(Cl)cc32)cc1` [Example 96, N-[4-[(2-Chloro-5,6,7,8-tetrahydro-4H-thieno[3,2-b]azepin-4-yl)carbonyl]phenyl]-2-methylbenzamide], the IC50 in test [1] stood at 0.01 µM. The molecule further had an IC50 in test [2] of 0.088 µM. Also, in test [3] (30 mg/kg P.O.), the Osmolality stood at 465 mOsm/kg and the “Urine Volume” value was found to be 16.1 ml/4 hours.
For `Cc1c(F)cccc1C(=O)Nc1ccc(C(=O)N2CCCC(=O)c3sccc32)cc1` [Example 155, N-[4-[(5,6,7,8-Tetrahydro-8-oxo-4H-thieno[3,2-b]azepine-4-yl)carbonyl]phenyl]-3-fluoro-2-methylbenzamide], the half-inhibitory concentration (IC50) in test [1] stood at 0.25 µM. For the same molecule, in test [2], the half-maximal inhibitory concentration (IC50) is 7.6 µM. Moreover, in test [3] (10 mg/kg P.O.), the Osmolality was 1053 mOsm/kg and the “Urine Volume” value is recorded as 4.5 ml/4 hours.
In the same order, the values of `O=C(Nc1ccc(C(=O)N2CCCC(=O)c3sccc32)cc1)c1ccc(Cl)cc1Cl` [Example 156, N-[4-[(5,6,7,8-Tetrahydro-8-oxo-4H-thieno[3,2-b]azepin-4-yl)carbonyl]-phenyl]-2,4-dichlorobenzamide] are 0.33 µM, 5.5 µM, 1266 mOsm/kg and 3.8 ml/4 hours.
The corresponding values for `Cc1ccccc1C(=O)Nc1ccc(C(=O)N2CCCC(=O)c3sccc32)cc1` [Example 157, N-[4-[(5,6,7,8-Tetrahydro-8-oxo-4H-thieno[3,2-b]azepin-4-yl)carbonyl]-phenyl]-2-methylbenzamide] are 0.25 µM, 3.6 µM, 1070 mOsm/kg and 6.5 ml/4 hours.
Take `O=C(Nc1ccc(C(=O)N2CCCCc3sccc32)c(Cl)c1)c1ccc(F)cc1Cl` [Example 183]: in test [3] (10 mg/kg P.O.), the Osmolality amounted to 512 mOsm/kg and the “Urine Volume” value is 8.3 ml/4 hours.
